# Laboratory results from patent US10421718B2, “EBNA1 inhibitors and their method of use” (priority 2013, dated 2019).
# pIC50: −log10 of the molar value. Where a name gives a salt, the structure may show the parent alone.
# Molecular target: T1, His-EBNA1 (DNA binding domain of EBNA1, amino acids 459-607) (Epstein-Barr virus, UniProt P03211)
# T1 construct: made in house; host or cells: E. coli
# Test: Inhibition of 5′-biotin-oPL4624 binding to His-EBNA1 using Alpha Screen technology
# Conditions: Alpha Screen Activity (IC50, inhibition of 5′-biotin-oPL4624 binding to His-EBNA1), 15 nM His-EBNA1, 0.2 nM bt-oPL4624, 2 hr room temperature
# Summary of the method: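 His-tagged EBNA1 DNA-binding domain (aa 459-607, E. coli-expressed) at 15 nM with 0.2 nM biotinylated self-complementary oligo, streptavidin donor and nickel acceptor beads, in 25 mM Tris pH 7.2, 160 mM NaCl, 1 mM MgCl2. Compound 3.2 nM-100 μM final; AlphaScreen read after 2 h at room temperature, one-site dose-response fit.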
# T1 sequence (P03211 459-607): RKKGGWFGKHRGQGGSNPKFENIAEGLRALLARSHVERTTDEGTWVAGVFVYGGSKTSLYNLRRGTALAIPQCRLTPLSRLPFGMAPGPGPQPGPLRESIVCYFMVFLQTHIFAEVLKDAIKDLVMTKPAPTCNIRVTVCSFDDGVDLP
row,SMILES,pIC50
1,"O=C(O)c1cccc(C#Cc2ccncc2)c1-c1ccc2cc[nH]c2c1 [Entry 259, 2-(1H-indol-6-yl)-3-[2-(pyridin-4-yl)ethynyl]benzoic acid; trifluoroacetate salt]",5.00 to 6.00
2,"Cc1ccc(-c2c(C#Cc3ccncc3)cccc2C(=O)O)cc1 [Entry 260, 2-(4-methylphenyl)-3-[2-(pyridin-4-yl)ethynyl]benzoic acid; trifluoroacetate salt]",4.00 to 5.00
3,"Cc1ccc(-c2c(C#Cc3cccc(O)c3)cccc2C(=O)O)cc1 [Entry 261, 3-[2-(3-hydroxyphenyl)ethynyl]-2-(4-methylphenyl)benzoic acid]",4.00 to 5.00
4,"O=C(O)c1cccc(C#CCNc2ccc3[nH]cnc3c2)c1-c1ccccc1 [Entry 262, 3-{3-[(1H-1,3-benzodiazol-6-yl)amino]prop-1-yn-1-yl}-2-phenylbenzoic acid; trifluoroacetate salt]",5.00 to 6.00
5,"Cn1ccc2cc(-c3c(C#Cc4cccc(O)c4)cccc3C(=O)O)ccc21 [Entry 263, 3-[2-(3-hydroxyphenyl)ethynyl]-2-(1-methyl-1H-indol-5-yl)benzoic acid]",5.00 to 6.00
6,"CN1CCOc2cc(-c3c(C#Cc4cccc(O)c4)cccc3C(=O)O)ccc21 [Entry 264, 3-[2-(3-hydroxyphenyl)ethynyl]-2-(4-methyl-3,4-dihydro-2H-1,4-benzoxazin-7-yl)benzoic acid; trifluoroacetate salt]",5.00 to 6.00
7,"CS(=O)(=O)Nc1cccc(-c2c(C#Cc3cccc(O)c3)cccc2C(=O)O)c1 [Entry 265, 3-[2-(3-hydroxyphenyl)ethynyl]-2-(3-methanesulfonamidophenyl)benzoic acid]",4.00 to 5.00
8,"O=C(O)c1cccc(C#Cc2cccc(O)c2)c1-c1ccc2cc[nH]c2c1 [Entry 266, 3-[2-(3-hydroxyphenyl)ethynyl]-2-(1H-indol-6-yl)benzoic acid]",> 6.00
9,"NC(=O)c1cccc(-c2c(C#Cc3cccc(O)c3)cccc2C(=O)O)c1 [Entry 267, 2-(3-carbamoylphenyl)-3-[2-(3-hydroxyphenyl)ethynyl]benzoic acid]",4.00 to 5.00
10,"O=C(O)c1cccc(C#Cc2cccc(O)c2)c1-c1cn(S(=O)(=O)c2ccccc2)c2ccccc12 [Entry 268, 2-[1-(benzenesulfonyl)-1H-indol-3-yl]-3-[2-(3-hydroxyphenyl)ethynyl]benzoic acid]",4.00 to 5.00
11,"O=C(O)c1cccc(C#Cc2cccc(O)c2)c1-c1cccc(O)c1 [Entry 269, 2-(3-hydroxyphenyl)-3-[2-(3-hydroxyphenyl)ethynyl]benzoic acid]",4.00 to 5.00
12,"O=C(O)c1cccc(C#Cc2ccncc2)c1-c1ccc2[nH]ccc2c1 [Entry 270, 2-(1H-indol-5-yl)-3-[2-(pyridin-4-yl)ethynyl]benzoic acid; trifluoroacetate salt]",4.00 to 5.00
13,"O=C(O)c1cccc(C#Cc2ccncc2)c1-c1cc(O)cc(Cl)c1 [Entry 271, 2-(3-chloro-5-hydroxyphenyl)-3-[2-(pyridin-4-yl)ethynyl]benzoic acid; trifluoroacetate salt]",5.00 to 6.00
14,"O=C(O)c1cccc(C#Cc2ccncc2)c1-c1cc(O)cc(F)c1 [Entry 272, 2-(3-fluoro-5-hydroxyphenyl)-3-[2-(pyridin-4-yl)ethynyl]benzoic acid; trifluoroacetate salt]",4.00 to 5.00
15,"COc1cc(OC)cc(-c2c(C#Cc3ccncc3)cccc2C(=O)O)c1 [Entry 273, 2-(3,5-dimethoxyphenyl)-3-[2-(pyridin-4-yl)ethynyl]benzoic acid; trifluoroacetate salt]",4.00 to 5.00
16,"O=C(O)c1cccc(C#CC(O)c2ccc(F)cc2)c1-c1cccc(O)c1 (stereo not shown) [Entry 274, 3-[3-(4-fluorophenyl)-3-hydroxyprop-1-yn-1-yl]-2-(3-hydroxyphenyl)benzoic acid]",5.00 to 6.00
17,"O=C(O)c1cccc(C#Cc2cccc(O)c2)c1-c1ccccc1Oc1ccccc1 [Entry 275, 3-[2-(3-hydroxyphenyl)ethynyl]-2-(2-phenoxyphenyl)benzoic acid]",4.00 to 5.00

row,SMILES,pIC50
1,"O=C(O)c1cccc(C#Cc2cccc(O)c2)c1-c1c[nH]c2ccccc12 [Entry 276, 3-[2-(3-hydroxyphenyl)ethynyl]-2-(1H-indol-3-yl)benzoic acid]",4.00 to 5.00
2,"COc1cc(OC)cc(-c2c(C#Cc3cccc(O)c3)cccc2C(=O)O)c1 [Entry 277, 2-(3,5-dimethoxyphenyl)-3-[2-(3-hydroxyphenyl)ethynyl]benzoic acid]",4.00 to 5.00
3,"NC(=O)c1cccc(C#Cc2cccc(C(=O)O)c2N)c1 [Entry 278, 2-amino-3-[2-(3-carbamoylphenyl)ethynyl]benzoic acid; trifluoroacetate salt]",4.00 to 5.00
4,"Nc1c(C#Cc2cccc(C(=O)O)c2)cccc1C(=O)O [Entry 279, 2-amino-3-[2-(3-carboxyphenyl)ethynyl]benzoic acid; trifluoroacetate salt]",4.00 to 5.00
5,"C(#Cc1ccc2[nH]ccc2c1)c1cccc(-c2nnn[nH]2)c1 [Entry 280, 5-[3-(1H-tetrazol-5-yl)-phenylethynyl]-1H-indole 5-(3-Ethynyl-phenyl)-1H-tetrazole]",5.00 to 6.00
6,"C(#Cc1c[nH]c2ncccc12)c1cccc(-c2nnn[nH]2)c1 [Entry 281, 3-[3-(1H-tetrazol-5-yl)-phenylethynyl]-1H-pyrrolo[2,3-b]pyridine]",4.00 to 5.00
7,"C(#Cc1ccc2cc[nH]c2c1)c1cccc(-c2nnn[nH]2)c1 [Entry 282, 6-[3-(1H-tetrazol-5-yl)-phenylethynyl]-1H-indole]",5.00 to 6.00
8,"O=S(=O)(c1ccccc1)n1cc(C#Cc2cccc(-c3nnn[nH]3)c2)c2ccccc21 [Entry 283, 1-benzenesulfonyl-3-[3-(1H-tetrazol-5-yl)-phenylethynyl]-1H-indole]",> 6.00
9,"C(#Cc1c[nH]c2ccccc12)c1cccc(-c2nnn[nH]2)c1 [Entry 284, 3-[3-(1H-tetrazol-5-yl)-phenylethynyl]-1H-indole]",> 6.00
10,"OCc1ccccc1C#Cc1cccc(-c2nnn[nH]2)c1 [Entry 285, {2-[3-(1H-tetrazol-5-yl)-phenylethynyl]-phenyl}-methanol]",4.00 to 5.00
11,"O=C(O)c1cccc(C#Cc2cccc(C(=O)N3CCOCC3)c2)c1 [Entry 286, 3-[3-(morpholine-4-carbonyl)-phenylethynyl]-benzoic acid]",4.00 to 5.00
12,"CNC(=O)c1cccc(C#Cc2cccc(C(=O)O)c2)c1 [Entry 287, 3-(3-methylcarbamoyl-phenylethynyl)-benzoic acid]",4.00 to 5.00
13,"CN(C)C(=O)c1cccc(C#Cc2cccc(C(=O)O)c2)c1 [Entry 288, 3-(3-dimethylcarbamoyl-phenylethynyl)-benzoic acid]",3.00 to 4.00
14,"CN1CCN(C(=O)c2cccc(C#Cc3cccc(C(=O)O)c3)c2)CC1 [Entry 289, 3-[3-(4-methyl-piperazine-1-carbonyl)-phenylethynyl]-benzoic acid]",3.00 to 4.00
15,"O=C(O)c1cccc(C#Cc2cccc(C(=O)N3CCN(c4ccccc4)CC3)c2)c1 [Entry 290, 3-[3-(4-phenyl-piperazine-1-carbonyl)-phenylethynyl]-benzoic acid]",4.00 to 5.00
16,"O=C(O)c1cccc(C#Cc2ccncc2)c1-n1ccc2ccccc21 [Entry 291, 2-indol-1-yl-3-pyridin-4-ylethynyl-benzoic acid]",4.00 to 5.00
17,"O=C(O)c1cccc(C#Cc2ccncc2)c1-n1ccnc1 [Entry 292, 2-imidazol-1-yl-3-pyridin-4-ylethynyl-benzoic acid]",3.00 to 4.00
